Row | melting point | SMILES
1 | 270 to 272 °C | COc1ccc(-c2cc(O)nc(C)n2)cc1
2 | 102 to 103 °C | CC(=O)OCC(ON1C(C)(C)CC(OC(=O)C(C)(C)C)CC1(C)C)c1ccccc1 (centres undefined)
3 | 78 to 79 °C | O=C(c1ccc(F)cc1)N1CCC[C@H](c2nc(-c3ccccc3)no2)C1
4 | 219 to 220 °C | COc1ccc(S(=O)(=O)N2CCc3cccc(NC(=O)c4ccncc4)c32)cc1
5 | 190 to 192 °C | COC1(c2ccccc2)CCc2c(C)c(O)c(C)c(C)c2O1 (centres undefined)
6 | 190 °C | Cc1cccc(NC(=O)NCC(=O)N(CC(=O)N2CCc3ccccc32)c2ccccc2)c1
7 | 168 to 169 °C | Cc1ccc(S(=O)(=O)Nc2ccccc2CCC(=O)c2cnc3sc(C)c(C)n23)cc1
8 | 215 to 216 °C | Cc1nc(N)sc1-c1ccnc(Nc2cccc(S(=O)(=O)N3CCOCC3)c2)n1
9 | 122 to 124 °C | COc1ccc2nc(-c3ccccc3)cc(CCNC(=O)C(F)(F)F)c2c1
10 | 154 to 155 °C | Brc1ccc(-c2cc3c(ccc4ccccc43)o2)cc1
11 | 233 to 236 °C | CN(CCF)c1nc2cc(NC(=O)c3c(C(=O)N4CC(F)C4)cnn3C)ccn2n1
12 | 213 to 214 °C | Nc1ncnc2c1ncn2CCCN1CCC(NC(=O)c2ccccc2)CC1
13 | 224 to 225 °C | COc1ccc(CCC(=O)NNC(=O)c2ccc3[nH]ncc3c2)cc1C(F)(F)F
14 | 86 to 88 °C | CCOC(=O)CS(=O)(=O)Nc1ccccc1CC(=O)OC
15 | 210 to 211 °C | O=C1c2c(F)c(F)c(F)c(F)c2C(=O)N1c1ccccc1
16 | 195 to 197 °C | CC(=O)OCC(=O)N1C(C(N)=O)Cc2c([nH]c3ccccc23)C1c1ccccc1 (centres undefined)
17 | 172 to 173 °C | N#Cc1cc(NC(=O)c2csc3c2CCCC3)ccc1N1CCC(O)CC1
18 | 86 to 88 °C | COC(=O)c1ccc([N+](=O)[O-])cc1S(=O)(=O)Cl
19 | 103 to 106 °C | COC(=O)c1ccc2cc(C(C)n3ccnc3)ccc2c1 (centres undefined)
20 | 183 to 184 °C | Cc1ccccc1N1CCN(CC(O)COc2cccc3c2CCCC3=O)CC1 (centres undefined)

Row | melting point | SMILES
21 | 115 to 116 °C | CN(C)Cc1ccc(CSCCNC(=C[N+](=O)[O-])NCC(O)c2ccccc2)o1 (centres undefined)
22 | 47.5 to 48.5 °C | COC(=O)c1cc(Cl)c(C)c(Cl)c1
23 | 174 °C | CCC(O)(CC(=O)OC(C)(C)C)c1ccn(Cc2cc3cc(OCc4ccccc4)c(F)cc3nc2I)c(=O)c1 (centres undefined)
24 | 75 °C | CCOC(CCP(=O)(OCC)OCC)(C(=O)c1ccccc1)c1ccccc1 (centres undefined)
25 | 99 to 100 °C | CC(C)CCNc1c([N+](=O)[O-])cnc2ccccc12
26 | 184 °C | O=C(Cc1ccc([N+](=O)[O-])cc1)CN1C(=O)c2ccccc2C1=O
27 | 113 to 114 °C | COC(=O)c1c(-c2ccc(F)cc2)ccc2ccccc12
28 | 268 to 269 °C | CCn1cc(C(=O)O)c(=O)c2ccc(-c3cccnc3)cc21
29 | 138 to 140 °C | COC1=CC(=O)c2c(C)cccc2C1=O
30 | 93 °C | COC(=O)C1CCn2c1cc(Br)c2C(=O)c1ccccc1 (centres undefined)
31 | 100 to 102 °C | Cn1c(N2CCOCC2)nc(C(=O)NCc2ccc(Cl)c(Cl)c2)c(O)c1=O
32 | 146 to 147 °C | CSC(=O)Cn1c(=O)sc2ccccc21
33 | 115 to 117 °C | CCC1c2cccn2-c2ccc(F)cc2N1C(=O)c1cccc(O)c1 (centres undefined)
34 | 120 to 122 °C | CN(C)CC1CC(c2ccc(Cl)cc2)c2ccccc2O1 (centres undefined)
35 | 81 to 83 °C | CC(=O)C(=CN(C)C)C(=O)c1ccccc1
36 | 106 to 108 °C | CCCCOCCOc1ccc(-c2ccc(N3CCCCC3C)c(C=CC(=O)O)c2)cc1 (centres undefined)
37 | 101 to 103 °C | CCCCS(=O)(=O)NCc1ccc(C(=O)CN2CCN(c3ccncc3)CC2)cc1
38 | 145 to 147 °C | CC(C)c1cccc(C(C)C)c1NC(=O)CC(=O)C1(c2ccccc2)CCCC1
39 | 130 to 135 °C | COC(=O)c1ccc2cc(C(O)c3cccnc3)ccc2c1 (centres undefined)
40 | 183 to 184 °C | CC(C)C[C@H](NC(=O)OCC1c2ccccc2-c2ccccc21)C(=O)OC(C)(C)C

Row | melting point | SMILES
41 | 135 to 138 °C | CCC(=O)CCc1ccc(OC)c(S(N)(=O)=O)c1
42 | 204 to 205 °C | CNc1ncc2cc(-c3ccccc3)c(NC)nc2n1
43 | 124 to 126 °C | COc1ccc(-c2cc(-c3ccccc3)c(-c3ccccc3)s2)cc1
44 | 214 to 215 °C | CC1NC(=O)NN=C1c1ccc(Br)cc1 (centres undefined)
45 | 195 to 198 °C | Oc1ccccc1-c1ccnc(-c2ccccc2)n1
46 | 175 to 177 °C | c1ccc(-c2ncc(-c3ncco3)cn2)cc1
47 | 216 to 218 °C | CC(C)(Cc1ccc(OCCCC(=O)O)cc1)NCC(O)c1cc(OCc2ccccc2)cc2c1OCC(=O)N2 (centres undefined)
48 | 118 to 120 °C | O=C(O)COc1cc(Cl)ccc1C(=O)NCCN1CCN(Cc2ccc(Cl)c(Cl)c2)CC1
49 | 59.5 to 60 °C | Clc1cc(Br)ccc1OCc1ccccc1
50 | 107 to 108 °C | COC(=O)C1=Cc2cc(-c3ccc(OCCOC(C)C)cc3)ccc2N(C=O)CC1
51 | 112 °C | CNC(=O)C(C)Oc1ccc(O)cc1 (centres undefined)
52 | 128 to 129 °C | COc1ccc(OC)c2c1CCC(O)C2 (centres undefined)
53 | 177 to 178 °C | O=C(O)c1ccc(NCc2ccc(Cl)s2)cc1
54 | 96 °C | O=S1(=O)c2cccc3cccc(c23)N1CCCl
55 | 220 to 222 °C | CCOC(=O)C1=C(C)NC2=C(C(=O)OC2)C1c1ccccc1[N+](=O)[O-] (centres undefined)
56 | 224 to 226 °C | NS(=O)(=O)c1ccc(NC(=O)NC2CCCC2)cc1
57 | 156 to 157 °C | COc1ccc(Oc2ccc(NC(=O)N3CCc4ccccc4CC3)cn2)cc1
58 | 228 °C | Cc1ccc(S(=O)(=O)Cc2c(C(=O)O)nn(-c3ccccc3)c2O)cc1
59 | 96 to 98 °C | Cc1ccc(SCC(CCC(=O)O)C(=O)O)cc1C (centres undefined)

Further lines, the compound ahead of its results:

Row | SMILES | melting point
60 | N#Cc1ccc(-c2nc3c(C(N)=O)cccc3[nH]2)cc1 | > 310 °C
61 | N#Cc1coc(CBr)c1 | 40 to 45 °C
62 | CCOC(=O)Cc1ccc(-c2nc(COc3ccc(COc4nn(-c5ccccc5)cc4/C=C/c4coc(C(C)(C)C)n4)cc3OC)c(C)o2)cc1 | 126 to 129 °C
63 | COc1ccc(C2=NN(C3CCN(S(=O)(=O)CCNCC(O)c4ccc(O)c(CO)c4)CC3)C(=O)[C@@H]3CC=CC[C@H]23)cc1OC (some centres undefined) | 97 to 99 °C
64 | CC1=NC(C)=C(c2ccc(Oc3ccc(S(C)=O)cc3)cc2)C(=O)C1Br (centres undefined) | 262 to 263 °C
65 | CN(C)CCn1c(=O)sc2ccc(Cl)cc21 | 62.5 to 65.5 °C
66 | C[C@]1(CN2CCN(c3ccc(OC(F)(F)F)cc3)CC2)Cn2cc([N+](=O)[O-])nc2O1 | 129 to 130 °C
67 | O=C(CCN1CCCCC1)Nc1ccc2[nH]c3ccc(NC(=O)CCN4CCCCC4)cc3c(=O)c2c1 | > 320 °C
68 | CC(C)(C)C(=O)Oc1ccc2c3c(cnc2c1)CCCC3O[Si](C)(C)C(C)(C)C (centres undefined) | 125 to 126 °C
69 | COc1cc(CC(=O)NCCCc2ccc(C)c(C)c2)ccc1OCCN(CCO)CCO | 54 to 58 °C
70 | C=CCSc1nnc(C(C)(C)C)[nH]1 | 127 to 130 °C
71 | CCCCc1cc(-c2nnn[nH]2)ncc1C(=O)O | > 300 °C
72 | CCCS(=O)(=O)n1ccc2ccc(N=C3NCCN3)cc21 | 213 °C
73 | Cc1ccc(C(=O)c2ccc(Cc3ccc(N)cc3)n2C)c(C)c1 | 108 °C
74 | CCCCCCCCCCCCCCCCS(=O)(=O)c1ccc(-n2c(=O)cc(N)n2C(=O)OCC)cc1 | 92 °C
75 | CC(=O)OC1CCC2CCC3C(CCC4(C)C(O)C(N5CCCCC5)CC34)C2(C)C1 (centres undefined) | 162 to 166 °C
76 | COCCOc1ccc(CCCOC(=O)NS(=O)(=O)NCCOC(C)C)c(Oc2ncc(C(F)(F)F)cc2Cl)c1 | 114 °C
77 | CCCC(O)c1cc(C)cc(C)c1C=CC1OCC(C)(C)CO1 (centres undefined) | 56 to 59 °C
78 | C[C@H]1NC(=O)[C@H]1N(NC(=O)OC(C)(C)C)C(=O)OC(C)(C)C | 147 to 149 °C
79 | Sc1nccn1Cc1c(Cl)cccc1Cl | 242 to 243 °C
80 | CC(C)(Cc1ccc(Cl)cn1)C(N)=O | 51.4 to 53.4 °C
81 | COc1ccc(Cn2c(N)c(C#N)c3c2CCCC3)cc1 | 122 to 126 °C
82 | O=C1NCN(c2ccccc2)C12CCN(CCCC1(c3ccc(F)cc3F)OCCO1)CC2 | 58 to 62 °C

Row | SMILES | melting point
83 | Clc1nccc(-n2ccnc2)n1 | 128 °C
84 | CCOC(=O)CSc1nc(=O)[nH]cc1F | 156 °C
85 | Cc1nccn1-c1ccc(-c2cnc([C@H](Cc3ccccn3)N(C=O)c3cc4ccccc4[nH]3)n2C)cc1 | 207 to 211 °C
86 | CCC(O)Cn1cc(-c2cccc(C(F)(F)F)c2)cn1 (centres undefined) | 77 to 79 °C
87 | CCOC(=O)COc1ccc(Oc2ccc([N+](=O)[O-])cc2)c(Cl)c1Cl | 90 to 91 °C
88 | CCOC(=O)c1cnoc1-c1ccc(Cl)cc1Cl | 82 to 84 °C
89 | O=C(c1ccc(O)cc1)c1nn(C2CCCC2)c2c(C(F)(F)F)cccc12 | 225 to 226 °C
90 | Fc1cccc2c1CN(NC1=NCCN1)C2 | 168 to 170 °C
91 | Cc1cc2[nH]c3c(c2cc1C)CC(N(C)C)CC3 (centres undefined) | 183 to 187 °C
92 | Cc1nnc(-c2ccc3occ(-c4ccc(C(=O)N(C)C)c(F)c4)c3c2)o1 | 152 to 153 °C
93 | Nc1ccc(F)cc1-c1ccc(Cl)c(Cl)c1 | 58 °C
94 | CCCCCCCCCc1ccc(C(Sc2cccc(NC(=O)CC(=O)O)c2)C(=O)CCCC(=O)O)cc1 (centres undefined) | 88 to 91 °C
95 | O=C1C(=CO)CSc2c(Cl)cccc21 | 97 to 99 °C
96 | NS(=O)(=O)c1cc2c(s1)CN(CCO)CC2 | 184 to 186 °C
97 | Oc1cc(Cl)nnc1-c1ccc(F)cc1 | 254 to 260 °C
98 | CC/C(=C\CCC(O)(CC)CC)c1ccc(CCc2ccc(CO)c(CO)c2)s1 | 77 °C
99 | Cc1c(Cc2cccc3ccccc23)c(=O)oc2cc(OCc3nnn[nH]3)cc(OCc3nnn[nH]3)c12 | 164 to 174 °C
100 | CC(C)(C)c1ccc(S(=O)(=O)C[N+](=O)[O-])cc1 | 90 to 91 °C
101 | COc1cc(C(=O)O)c(O)c2c1C(C)(C)CCC2(C)C | 213 °C
102 | Cc1nc(-c2ccc(C(F)(F)F)cc2)sc1CSc1ccc(CC(=O)O)cc1 | 202 to 203 °C
103 | CC(C)n1nc(-c2ccc(O)cc2)c2sccc2c1=O | 256 to 257 °C
104 | Cc1cccc(C)c1NC(N)=NN | 192 to 193 °C
